# Results reported in US6537976B1, “Dialysis solutions containing water soluble vitamins and nutrients” (priority 1997, dated 2003).
# Read-outs that look alike come from different tables or passages of the source.
# Key:
# [1] = In vitro hemodialysis of uremic plasma using dialysate solutions with and without added vitamins
# Procedure: In the following experiment uremic plasma was dialyzed against dialysate solutions containing different concentrations of vitamins, and the total plasma levels of vitamins after dialysis was measured.
# Plasma obtained from a uremic subject undergoing plasmapharesis was pooled and samples were taken for estimation of baseline vitamin levels. The total volume of 2.7 liters was divided into three equal aliquots of 900 ml each. Hemodialysis was performed on each aliquot of plasma using a F-60 polysulfone dialyzer (Fresenius Inc., USA). The plasma flow rate was 350 ml/min and the dialysate flow rate was 500 ml/min.
# In the first experiment, vitamins were not added to the dialysate. In the second experiment, vitamins were added to the dialysate at a concentration that was close to the upper limit of normal, to simulate the maintenance of physiologic levels. In the third experiment, vitamins were added to the dialysate at a concentration that was 10 times that in the second experiment, with the aim of achieving supratherapeutic levels.
# [2] = cited from earlier work
# [3] = cited from earlier work; remark: listed apart in the source
# plasma proteins = conditions: subjects with normal kidney function; effects of uremia not examined; cited from earlier work
# [4] = subjects with normal renal function; cited from earlier work
# [5] = cited from earlier work; remark: listed apart in the source
# [6] = vitamin in the dialysate 0 μg/L
# [7] = vitamin in the dialysate 15 μg/L
# [8] = vitamin in the dialysate 150 μg/L
# [9] = vitamin in the dialysate 60 μg/L
# [10] = vitamin in the dialysate 600 μg/L
compound,measurement,setting,value
"Nc1nc2ncc(CNc3ccc(C(=O)N[C@@H](CCC(=O)O)C(=O)O)cc3)nc2c(=O)[nH]1 [Folic acid, folic acid]",Plasma concentration of the vitamin after dialysis for 0 min (Baseline),[1]; [6],5.8 ng/mL
same,Plasma concentration of the vitamin after dialysis for 45 min,[1]; [6],1.7 ng/mL
same,Plasma concentration of the vitamin after dialysis for 90 min,[1]; [6],3.3 ng/mL
same,Plasma concentration of the vitamin after dialysis for 0 min (Baseline),[1]; [7],5.8 ng/mL
same,Plasma concentration of the vitamin after dialysis for 45 min,[1]; [7],32.2 ng/mL
same,Plasma concentration of the vitamin after dialysis for 90 min,[1]; [7],39.8 ng/mL
same,Plasma concentration of the vitamin after dialysis for 0 min (Baseline),[1]; [8],5.8 ng/mL
same,Plasma concentration of the vitamin after dialysis for 45 min,[1]; [8],256.5 ng/mL
same,Plasma concentration of the vitamin after dialysis for 90 min,[1]; [8],272.2 ng/mL
same,Plasma concentration in hemodialysis patients receiving supplementation in high doses,"[2]; 15 mg folic acid daily for 8 weeks, predialysis, mean ± SD",927 ± 575 μg/L with 15
"O=C1O[C@H]([C@@H](O)CO)C(O)=C1O [Ascorbic acid (vit C), ascorbic acid]",Plasma concentration in hemodialysis patients receiving supplementation in high doses,"[2]; 500 mg ascorbic acid/day for 2 weeks, mean ± SE","28 ± 2 mg/L (mean ± SE),"
same,"Plasma concentration in hemodialysis patients receiving supplementation in high doses, Range","[2]; 500 mg ascorbic acid/day for 2 weeks, range","Range: 15-37 mg/L,"
cyanocobalamin [Vitamin B12],solubility in water,[3],soluble in water
same,Plasma concentration in hemodialysis patients receiving supplementation in high doses,"[2]; vitamin B12, Bostom et al., predialysis, mean ± SD",1.3 ± 0.4 ng/mL
same,Fraction of the plasma content that is protein bound (binding in words),plasma proteins,Protein bound
"Cc1ncc(COP(=O)(O)O)c(C=O)c1O [Pyridoxal 5′-phosphate (vit B6), pyridoxal 5-phosphate]",Fraction of the plasma content that is protein bound (binding in words),plasma proteins,albumin
Cc1ncc(CO)c(CO)c1O.Cl [pyridoxine hydrochloride],effect of addition to the dialysate on plasma PLP concentration,"[1]; assay specific for esters such as PLP, does not measure pyridoxine",did not result in an increase in PLP concentration
C[N+](C)(C)C[C@H](O)CC(=O)[O-] [L-carnitine],solubility in water,[3],water soluble
same,Free carnitine plasma concentration in hemodialysis patients receiving supplementation in high doses,"[2]; 20 mg/Kg L-carnitine intravenously three times a week following hemodialysis for 6 months, mean ± SE",Free carnitine 250 ± 11 μmol/L
same,Fraction of the plasma content that is protein bound (binding in words),plasma proteins,not bound
same,fraction of the administered dose excreted in the urine,[4],58-65%
same,patients showing global improvement in clinical status,"[5]; 20 mg/kg intravenous after each hemodialysis session for 6 months, control group 18%",50%
same,clinical effects of carnitine administration,[5]; chronic hemodialysis patients,"improvement in intradialytic hypotension, muscle cramps, exercise capacity, a sense of well being"
"Cc1ncc(C[n+]2csc(CCO)c2C)c(N)n1 [Thiamine, thiamine]",Plasma concentration of the vitamin after dialysis for 0 min (Baseline),[1]; [6],17 ng/mL
same,Plasma concentration of the vitamin after dialysis for 90 min,[1]; [6],3.6 ng/mL
same,Plasma concentration of the vitamin after dialysis for 0 min (Baseline),[1]; [9],17 ng/mL
same,Plasma concentration of the vitamin after dialysis for 90 min,[1]; [9],72 ng/mL
same,Ratio of Plasma to dialysate at the end of dialysis (VP/VD),[1]; [9],1.2
same,Plasma concentration of the vitamin after dialysis for 0 min (Baseline),[1]; [10],17 ng/mL
same,Plasma concentration of the vitamin after dialysis for 90 min,[1]; [10],>100 ng/mL
same,Whole blood thiamine in hemodialysis patients receiving supplementation in high doses,"[2]; 600-900 mg thiamine per week, predialysis, mean ± SD",50 ± 12 µg/L
same,Fraction of the plasma content that is protein bound (binding in words),plasma proteins,albumin
